# Measurements from paper PMC12610573, “New Chlormequat-Based Ionic Liquids as Plant Resistance Inducers” (Molecules, 2025).
# Experiments:
# [1] = system: Tobamovirus tabaci (tobacco mosaic virus, TMV) on Nicotiana tabacum cv. Xanthi; assay: SAR induction assay: necrotic area after TMV inoculation of sprayed tobacco; type: in vivo; conditions: for SAR Induction (percentage of necrotic area on leaves): TMV inoculation after 7 days, read 7 days later, UTC 34.54; for Reduction in Necrotic Area: compared with untreated control plants; for Percentage of necrotic spot coverage (leaf shown in supplementary figure): single leaf image
# Description: Plants of Nicotiana tabacum cv. Xanthi were grown under greenhouse conditions at 25 °C and 50% relative humidity, under natural daylight during the May–August growing season, with a natural photoperiod. The plants were sprayed with solutions containing the tested compounds.
# In all experiments, the TMV SL-1 isolate Tobamovirus (TMV) was used. To obtain a viral inoculum, Nicotiana tabacum cv. Samsun plants were sap-inoculated with previously virus-infected plant material. After the appearance of disease symptoms on the infected plants (leaf mosaic), the virus was isolated by sucrose density gradient centrifugation with 0.01 M Tris-HCl, pH 7.0, to prepare the infectious inoculum. The concentration of virus in the obtained preparation was determined spectrophotometrically. The samples of TMV were stored at −20 °C until use.
# The tested active substances at a given concentration were sprayed on tobacco plants with three fully developed leaves. The volume of working solution used was equal to 10 mL per plant. The compounds were dissolved in a water/propylene glycol solution (95/5, v/v). The plants of the untreated control variant were sprayed with a water/propylene glycol solution (95/5, v/v) that was used for the preparation of solutions of the tested compounds. After seven days, the plants were mechanically inoculated using purified viral preparations (0.01 ng/mL as described in [34]).
# The plants were inoculated with the TMV inoculum at a concentration of 3.8 × 10^−4 ng per leaf. For each variant of treatment, 3 plants were sprayed, and 3 leaves of each plant were analyzed. The entire experiment was performed in 2 replicates. Necrotic areas on the leaves were determined using ImageJ software.
# The surface of a leaf or an area with necrotic spots is represented by a set of pixels in the image, which are counted by the program. Reduction in necrotic area (ISAR) is expressed by the following formula:(1) ISAR=100−(At/Ac∗100) where At is the ratio of the area of necrotic spots caused by viral infection that appeared on the leaf treated with the test substance to the whole area of the leaf; Ac is the ratio of the area of the necrotic spots caused by viral infection that appeared on the leaf of the control plant to the whole area of the leaf.
# (§1) Statistical significance of the effect of the treatments of plants with tested compounds on the phytotoxicity and SAR induction was assessed with the ANOVA test performed using the Statistica program StatSoft with software version 9.1 (StatSoft Sp. z o.o., Kraków, Poland). The statistical assumptions of normality and homogeneity of variances were verified prior to conducting the ANOVA tests. Differences between the means were estimated with Tukey’s HSD test at the significance level of p = 0.05.
# [2] = system: radish (Raphanus sativus) sprouts; assay: Phytotoxicity test on radish sprouts; type: in vivo; conditions: for Reduction in Sprout Mass: compared with untreated control; for Mass of 25 Sprouts: radish, 5 days, UTC 3.09 g
# Description: Twenty five seeds of radish (Raphanus sativus) were placed on a filter tissue in a Petri dish. […] Then, sprouts were weighted. All variants of treatment were tested together, with 3 replications (plates) in each of 2 cycles performed. Results were subjected to statistical analysis as described in Section 4.8.
# as §1
# [3] = Thermogravimetric analysis (TGA), thermal stability; conditions: TGA under nitrogen, 10 °C/min; for Thermal Stability T5%onset: 5% weight loss onset; for Thermal Stability Tonset: decomposition onset
# Description: TGA was performed on a TGA Q50 (Texas Instruments, Dallas, TX, USA) under nitrogen. Samples (5–10 mg) were heated from 25 °C to 500 °C at 10 °C/min with an isothermal step at 85 °C for 10 min. T5%onset and Tonset values were recorded.
# [4] = Solubility tests in representative solvents (Vogel protocol); conditions: 25 °C; for Solubility in Hexane: Snyder polarity index 0.0; for Solubility in Toluene: Snyder polarity index 2.3; for Solubility in Isopropanol: Snyder polarity index 4.3; for Solubility in Acetone: Snyder polarity index 5.1; for Solubility in Methanol: Snyder polarity index 6.6; for Solubility in Water: Snyder polarity index 9.0
# Description: The solubilities of the prepared ILs in ten representative solvents were determined according to the protocols from Vogel’s Textbook of Practical Organic Chemistry. The solvents chosen for the study were arranged in order of descending value of their Snyder polarity index: water—9.0, methanol—6.6, acetone—5.1, isopropanol—4.3, toluene—2.3, and hexane—0.0.
SMILES,SAR Induction (percentage of necrotic area on leaves) ([1]; 125 mg/L spray),Reduction in Necrotic Area ([1]; 125 mg/L) [%],Percentage of necrotic spot coverage (leaf shown in supplementary figure) ([1]; 125 mg/L) [%],SAR Induction (percentage of necrotic area on leaves) ([1]; 250 mg/L spray),Reduction in Necrotic Area ([1]; 250 mg/L) [%],Percentage of necrotic spot coverage (leaf shown in supplementary figure) ([1]; 250 mg/L) [%],Difference in percentage reduction in leaf necrotic area between 125 mg/L and 250 mg/L ([1]; in vivo),Reduction in Sprout Mass ([2]; 125 mg/L) [%],Mass of 25 Sprouts ([2]; 125 mg/L),Reduction in Sprout Mass ([2]; 250 mg/L) [%],Mass of 25 Sprouts ([2]; 250 mg/L),Thermal Stability T5%onset [3] [°C],Thermal Stability Tonset [3] [°C],Solubility in Hexane [4],Solubility in Toluene [4],Solubility in Isopropanol [4],Solubility in Acetone [4],Solubility in Methanol [4],Solubility in Water [4]
C[N+](C)(C)CCCl.O=C([O-])c1cc(Cl)ccc1O [[CC][5-ClSal]],3.15 a AB %,90.9,2.28,1.58 a A %,95.4,1.15,approximately 4.5 percentage points,19.15,2.50 efg D,30.15,2.16 fgh C,217.1,138.5,− (insoluble),− (insoluble),+/− (of limited solubility),− (insoluble),+ (soluble),+/− (of limited solubility)
C[N+](C)(C)CCCl.O=C([O-])c1ccc(Cl)cc1O [[CC][4-ClSal]],12.47 bc B %,63.9,,7.85 bcde A %,77.3,,,,2.84 hi D g,19.63,2.48 ij C g,205.3,137.2,− (insoluble),− (insoluble),+/− (of limited solubility),− (insoluble),+ (soluble),+/− (of limited solubility)
C[N+](C)(C)CCCl.O=C([O-])c1cc(Cl)nc(Cl)c1 [[CC][Ina]],14.80 cd AB %,57.2,,12.52 ef A %,63.8,,,15.05,2.63 fgh D,28.21,2.22 gh C,177.2,,− (insoluble),− (insoluble),+/− (of limited solubility),− (insoluble),+ (soluble),+ (soluble)
C[N+](C)(C)CCCl.O=C([O-])c1cccc(Cl)c1O [[CC][3-ClSal]],2.52 a AB %,92.7,0.79,1.39 a A %,96.0,0.27,,15.97,2.60 fgh D,36.68,1.96 ef C g,196.2,136.1,− (insoluble),− (insoluble),+/− (of limited solubility),− (insoluble),+ (soluble),+/− (of limited solubility)
